From patent publication US20240051985A1, “METTL3 MODULATORS” (ACCENT THERAPEUTICS, INC., priority 2020, published 2024)

Legend:
METTL3/METTL14 = METTL3/METTL14 (Homo sapiens, UniProt Q86U44); assay: METTL3-14 standard enzyme assay (3H-SAM flashplate); conditions: Table 4; METTL3 biochemical assay
How it was run: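 Radiometric methyltransferase read-out: after quenching with excess unlabelled SAM (15 μM), biotinylated RNA was captured on streptavidin flashplates (2 h, 25° C) and counted. Reactions contained 2.5 nM enzyme (5 min preincubation), 100 nM RNA and 100 nM 3H-SAM, ran 30 min in HEPES pH 7.5 buffer with KCl, MgCl2, DTT.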

PRMT5-MEP50 = PRMT5-MEP50 (Homo sapiens, UniProt O14744); assay: PRMT5 assay (3H-SAM flashplate); conditions: Table 4; PRMT5 biochemical assay
Sequence of PRMT5-MEP50 (O14744 whole entry): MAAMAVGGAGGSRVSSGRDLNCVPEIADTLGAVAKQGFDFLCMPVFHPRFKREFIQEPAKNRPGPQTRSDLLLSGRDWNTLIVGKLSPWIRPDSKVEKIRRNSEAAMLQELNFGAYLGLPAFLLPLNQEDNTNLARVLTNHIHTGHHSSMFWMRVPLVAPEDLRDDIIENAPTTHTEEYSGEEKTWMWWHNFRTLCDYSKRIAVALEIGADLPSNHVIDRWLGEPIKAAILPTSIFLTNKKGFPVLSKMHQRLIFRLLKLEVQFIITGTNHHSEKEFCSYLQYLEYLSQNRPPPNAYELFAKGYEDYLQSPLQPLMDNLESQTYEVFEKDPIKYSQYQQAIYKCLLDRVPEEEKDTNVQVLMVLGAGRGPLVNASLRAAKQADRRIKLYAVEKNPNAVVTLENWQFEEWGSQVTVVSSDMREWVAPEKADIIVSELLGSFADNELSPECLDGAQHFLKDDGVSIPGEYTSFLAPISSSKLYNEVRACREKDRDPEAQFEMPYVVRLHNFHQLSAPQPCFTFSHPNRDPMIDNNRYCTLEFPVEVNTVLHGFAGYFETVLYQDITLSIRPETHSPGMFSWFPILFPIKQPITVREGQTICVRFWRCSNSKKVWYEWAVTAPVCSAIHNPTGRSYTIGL
Sequence of PRMT5-MEP50 (Q9BQA1 whole entry partner): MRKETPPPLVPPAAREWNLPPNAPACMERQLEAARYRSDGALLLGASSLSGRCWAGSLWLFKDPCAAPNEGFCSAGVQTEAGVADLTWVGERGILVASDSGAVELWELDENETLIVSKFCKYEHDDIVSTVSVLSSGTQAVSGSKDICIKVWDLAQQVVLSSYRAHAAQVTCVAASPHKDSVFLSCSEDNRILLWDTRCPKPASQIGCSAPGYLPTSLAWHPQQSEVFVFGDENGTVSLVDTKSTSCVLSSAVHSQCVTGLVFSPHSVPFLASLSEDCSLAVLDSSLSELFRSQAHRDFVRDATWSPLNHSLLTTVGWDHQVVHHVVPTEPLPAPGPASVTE
How it was run: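 Radiometric methyl-transfer read-out: 3H-methyl transferred to a 3′-biotinylated, acetylated H4 peptide substrate (100 nM) from 3H-SAM (250 nM), captured on streptavidin scintillation plates. Enzyme complex 2.5 nM, pH 8.0 Tris buffer with DTT and Tween, compound preincubation 5 min, 60 min reaction stopped with excess unlabeled SAM.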

FLT3 = biological target: T1, FLT3 (Homo sapiens, UniProt P36888); assay: FLT3 LanthaScreen assay; type: biochemical; conditions: Table 4
T1 sequence (P36888 27-993): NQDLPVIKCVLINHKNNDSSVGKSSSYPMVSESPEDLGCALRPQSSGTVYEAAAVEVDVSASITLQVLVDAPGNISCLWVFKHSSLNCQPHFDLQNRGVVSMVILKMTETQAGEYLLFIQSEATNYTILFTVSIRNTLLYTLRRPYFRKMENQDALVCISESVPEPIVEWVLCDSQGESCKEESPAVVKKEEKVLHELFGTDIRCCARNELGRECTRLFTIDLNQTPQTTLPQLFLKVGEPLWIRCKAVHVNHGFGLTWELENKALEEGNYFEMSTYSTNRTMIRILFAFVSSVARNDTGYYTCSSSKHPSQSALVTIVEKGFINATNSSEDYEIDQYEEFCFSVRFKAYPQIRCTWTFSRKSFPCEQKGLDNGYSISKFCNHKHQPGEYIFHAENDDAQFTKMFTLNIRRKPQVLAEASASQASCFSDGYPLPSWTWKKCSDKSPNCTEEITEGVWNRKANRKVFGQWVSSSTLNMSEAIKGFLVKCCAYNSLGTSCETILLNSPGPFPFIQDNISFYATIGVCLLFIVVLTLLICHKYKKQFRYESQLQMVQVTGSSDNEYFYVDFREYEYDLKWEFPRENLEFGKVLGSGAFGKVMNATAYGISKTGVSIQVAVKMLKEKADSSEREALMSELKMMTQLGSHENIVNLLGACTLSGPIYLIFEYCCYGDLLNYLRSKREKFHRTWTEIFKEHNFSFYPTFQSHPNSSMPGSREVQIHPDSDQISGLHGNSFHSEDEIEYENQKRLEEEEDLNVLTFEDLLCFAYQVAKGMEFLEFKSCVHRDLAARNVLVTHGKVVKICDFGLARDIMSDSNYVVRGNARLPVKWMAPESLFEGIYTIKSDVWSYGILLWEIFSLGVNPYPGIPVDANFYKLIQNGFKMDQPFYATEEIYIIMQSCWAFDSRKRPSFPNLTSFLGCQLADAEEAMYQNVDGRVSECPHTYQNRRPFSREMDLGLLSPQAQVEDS
Method: (§1) FLT3/FLT3-ITD LanthaScreen Assays
(§2) Assays were performed in a 10 μl-volume in 384-well polypropylene microplates (Perkin Elmer Proxiplate, cat. No. 6059480) at ambient temperature. Optimized 1× assay buffer was 50 mM Hepes pH 7.5, 2 mM DTT, 0.01% Tween, 0.01% BSA, 10 mM MgCl2. For compound screening FLT3 (final concentration, f.c.=[…]) or FLT3-ITD (f.c.=[…]) was added using a Multidrop Combi (ThermoFisher Scientific, Waltham, MA) and preincubated for 10 min. Reactions were started by adding fluorescein-poly GT (f.c.=200 nM) and ATP (f.c.=57 μM) substrates. Reactions proceeded for 40 minutes. The reactions were stopped with a detection mixture of EDTA (f.c.=20 mM) and terbium-conjugated anti-phoso tyrosine antibody pY20 (f.c.=2 nM). The plates were sealed and read on an Envision (PerkinElmer, Waltham, MA) using 340 nm excitation and emission reads at 495 and 520 nM.

FLT3-ITD = biological target: T2, FLT3-ITD (Homo sapiens, UniProt P36888); assay: FLT3-ITD LanthaScreen assay; type: biochemical; conditions: Table 4
T2 sequence (P36888 1-993): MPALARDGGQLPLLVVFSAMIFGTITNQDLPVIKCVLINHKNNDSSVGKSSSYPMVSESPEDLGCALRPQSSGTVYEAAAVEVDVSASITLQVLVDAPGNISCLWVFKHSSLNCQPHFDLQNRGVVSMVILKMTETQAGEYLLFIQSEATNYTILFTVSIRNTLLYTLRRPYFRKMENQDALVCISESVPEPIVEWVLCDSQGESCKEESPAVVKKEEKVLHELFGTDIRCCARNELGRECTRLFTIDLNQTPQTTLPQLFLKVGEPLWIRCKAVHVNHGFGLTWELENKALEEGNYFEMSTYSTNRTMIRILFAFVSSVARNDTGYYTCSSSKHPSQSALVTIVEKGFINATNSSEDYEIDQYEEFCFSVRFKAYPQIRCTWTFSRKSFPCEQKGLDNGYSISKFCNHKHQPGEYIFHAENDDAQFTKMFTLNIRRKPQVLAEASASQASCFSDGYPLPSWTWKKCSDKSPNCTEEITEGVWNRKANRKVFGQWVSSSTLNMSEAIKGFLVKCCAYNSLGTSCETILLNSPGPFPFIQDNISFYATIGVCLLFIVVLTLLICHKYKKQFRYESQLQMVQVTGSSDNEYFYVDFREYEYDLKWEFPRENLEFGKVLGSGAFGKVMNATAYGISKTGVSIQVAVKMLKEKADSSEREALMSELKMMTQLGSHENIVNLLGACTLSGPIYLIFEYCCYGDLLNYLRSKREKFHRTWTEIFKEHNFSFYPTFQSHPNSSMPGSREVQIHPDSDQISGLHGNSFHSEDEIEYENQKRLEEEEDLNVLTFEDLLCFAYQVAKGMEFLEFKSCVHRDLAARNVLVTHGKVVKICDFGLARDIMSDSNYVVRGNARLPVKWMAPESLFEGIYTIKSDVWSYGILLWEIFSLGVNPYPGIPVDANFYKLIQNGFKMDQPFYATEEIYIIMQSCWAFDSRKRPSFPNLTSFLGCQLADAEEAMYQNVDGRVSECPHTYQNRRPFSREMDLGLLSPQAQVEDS
Method: as §1, §2

Sequence of METTL3/METTL14 (Q86U44 whole entry, species assumed): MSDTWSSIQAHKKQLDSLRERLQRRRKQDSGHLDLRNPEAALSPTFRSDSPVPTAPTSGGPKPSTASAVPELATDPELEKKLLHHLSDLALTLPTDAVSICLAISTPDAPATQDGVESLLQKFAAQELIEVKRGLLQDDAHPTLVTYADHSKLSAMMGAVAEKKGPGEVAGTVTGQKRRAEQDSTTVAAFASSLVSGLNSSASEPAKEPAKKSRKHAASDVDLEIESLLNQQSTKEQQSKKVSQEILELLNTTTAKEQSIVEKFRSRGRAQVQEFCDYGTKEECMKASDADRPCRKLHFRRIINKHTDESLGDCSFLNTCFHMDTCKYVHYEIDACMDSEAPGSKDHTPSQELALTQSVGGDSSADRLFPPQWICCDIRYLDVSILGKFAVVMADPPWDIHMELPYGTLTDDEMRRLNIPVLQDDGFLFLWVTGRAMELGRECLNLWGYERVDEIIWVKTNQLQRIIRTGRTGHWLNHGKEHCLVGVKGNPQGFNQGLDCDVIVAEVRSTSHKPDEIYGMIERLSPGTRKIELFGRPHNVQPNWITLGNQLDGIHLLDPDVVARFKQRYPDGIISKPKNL
Sequence of METTL3/METTL14 (Q9HCE5 whole entry partner, species assumed): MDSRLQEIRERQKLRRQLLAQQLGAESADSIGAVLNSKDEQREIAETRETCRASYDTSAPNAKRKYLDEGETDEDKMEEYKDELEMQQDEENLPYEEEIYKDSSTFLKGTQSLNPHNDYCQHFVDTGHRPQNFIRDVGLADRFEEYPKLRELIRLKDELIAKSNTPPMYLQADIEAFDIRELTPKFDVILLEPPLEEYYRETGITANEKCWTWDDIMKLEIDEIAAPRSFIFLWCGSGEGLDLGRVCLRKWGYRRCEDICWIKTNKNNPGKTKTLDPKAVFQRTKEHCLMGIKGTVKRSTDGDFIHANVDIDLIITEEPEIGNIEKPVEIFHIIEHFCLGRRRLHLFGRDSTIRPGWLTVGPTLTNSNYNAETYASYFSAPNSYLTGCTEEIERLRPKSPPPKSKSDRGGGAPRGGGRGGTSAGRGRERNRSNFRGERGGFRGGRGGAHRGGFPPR

IC50 (METTL3/METTL14) [nM]	IC50 (PRMT5-MEP50) [nM]	IC50 (FLT3) [nM]	IC50 (FLT3-ITD) [nM]	Structure (SMILES)
≥ 1000	≥ 1000	≥ 1000	≥ 1000	Cn1ccc(-c2cn([C@@H]3O[C@H](C(=O)NC[C@H]4CC[C@H](O)CC4)[C@@H](O)[C@H]3O)c3ncnc(N)c23)n1 [Compound I-159]
≥ 1000	≥ 1000	≥ 1000	≥ 1000	Cn1ccc(-c2cn([C@@H]3O[C@H](C(=O)N4CCC[C@@H](C(N)=O)C4)[C@@H](O)[C@H]3O)c3ncnc(N)c23)n1 [Compound I-174]
≥ 1000	10 to 100	≥ 1000	≥ 1000	CN1CCC(N(CCOCCO)C(=O)[C@H]2O[C@@H](n3cc(-c4ccn(C)n4)c4c(N)ncnc43)[C@H](O)[C@@H]2O)CC1 [Compound I-177]
100 to 1000	10 to 100	≥ 1000	≥ 1000	Cn1ccc(-c2cn([C@@H]3O[C@H](C(=O)NC4CCN(CCO)CC4)[C@@H](O)[C@H]3O)c3ncnc(N)c23)n1 [Compound I-178]
100 to 1000	10 to 100	≥ 1000	≥ 1000	CN1CC[C@@H](NC(=O)[C@H]2O[C@@H](n3cc(-c4ccn(C)n4)c4c(N)ncnc43)[C@H](O)[C@@H]2O)C1 [Compound I-184]
≥ 1000	≥ 1000	≥ 1000	≥ 1000	CN1CCC(NC(=O)[C@H]2O[C@@H](n3cc(-c4ccn(C)n4)c4c(N)ncnc43)[C@H](O)[C@@H]2O)CC1=O (some centres unmarked) [Compound I-186]
100 to 1000	100 to 1000	≥ 1000	≥ 1000	Cn1ccc(-c2cn([C@@H]3O[C@H](C(=O)NC4CCc5cnc(N)nc5C4)[C@@H](O)[C@H]3O)c3ncnc(N)c23)n1 (some centres unmarked) [Compound I-188]
100 to 1000	10 to 100	≥ 1000	≥ 1000	Cn1ccc(-c2cn([C@@H]3O[C@H](C(=O)NC4CCNC(C)(C)C4)[C@@H](O)[C@H]3O)c3ncnc(N)c23)n1 (some centres unmarked) [Compound I-189]
≥ 1000	≥ 1000	≥ 1000	≥ 1000	C[C@H]1C[C@H](NC(=O)[C@H]2O[C@@H](n3cc(-c4ccn(C)n4)c4c(N)ncnc43)[C@H](O)[C@@H]2O)CCN1 [Compound I-190]
10 to 100	100 to 1000	≥ 1000	≥ 1000	Cn1ccc(-c2cn([C@@H]3O[C@H](C(=O)NC4CCc5nc[nH]c5C4)[C@@H](O)[C@H]3O)c3ncnc(N)c23)n1 (some centres unmarked) [Compound I-194]
100 to 1000	100 to 1000	≥ 1000	≥ 1000	C[C@H](NC(=O)[C@H]1O[C@@H](n2cc(-c3ccn(C)n3)c3c(N)ncnc32)[C@H](O)[C@@H]1O)C1CCNCC1 [Compound I-195]
100 to 1000	10 to 100	≥ 1000	≥ 1000	CN1CC[C@H](NC(=O)[C@H]2O[C@@H](n3cc(-c4ccn(C)n4)c4c(N)ncnc43)[C@H](O)[C@@H]2O)C1 [Compound I-203]
100 to 1000	≥ 1000	≥ 1000	≥ 1000	Cn1ccc(-c2cn([C@@H]3O[C@H](C(=O)N[C@H]4CC[C@@](C)(O)CC4)[C@@H](O)[C@H]3O)c3ncnc(N)c23)n1 [Compound I-209]
100 to 1000	10 to 100	≥ 1000	≥ 1000	Cn1ccc(-c2cn([C@@H]3O[C@H](C(=O)NC4CC5(CNC5)C4)[C@@H](O)[C@H]3O)c3ncnc(N)c23)n1 [Compound I-210]
100 to 1000	10 to 100	≥ 1000	≥ 1000	Cn1ccc(-c2cn([C@@H]3O[C@H](C(=O)N[C@H]4CCCNC4)[C@@H](O)[C@H]3O)c3ncnc(N)c23)n1 [Compound I-219]
100 to 1000	< 10	≥ 1000	≥ 1000	Cn1ccc(-c2cn([C@@H]3O[C@H](C(=O)N[C@@H]4CCCNC4)[C@@H](O)[C@H]3O)c3ncnc(N)c23)n1 [Compound I-220]
100 to 1000	100 to 1000	≥ 1000	≥ 1000	C[C@@H]1C[C@@H](NC(=O)[C@H]2O[C@@H](n3cc(-c4ccn(C)n4)c4c(N)ncnc43)[C@H](O)[C@@H]2O)CCN1C [Compound I-233]
100 to 1000	100 to 1000	≥ 1000	≥ 1000	C[C@H]1C[C@H](NC(=O)[C@H]2O[C@@H](n3cc(-c4ccn(C)n4)c4c(N)ncnc43)[C@H](O)[C@@H]2O)CCN1C [Compound I-234]

Structure (SMILES)	IC50 (METTL3/METTL14) [nM]	IC50 (PRMT5-MEP50) [nM]	IC50 (FLT3) [nM]	IC50 (FLT3-ITD) [nM]
CN1[C@@H]2CC[C@H]1C[C@@H](NC(=O)[C@H]1O[C@@H](n3cc(-c4ccn(C)n4)c4c(N)ncnc43)[C@H](O)[C@@H]1O)C2 [Compound I-187]	100 to 1000	10 to 100	≥ 1000	≥ 1000
CN1[C@@H]2CC[C@H]1C[C@H](NC(=O)[C@H]1O[C@@H](n3cc(-c4ccn(C)n4)c4c(N)ncnc43)[C@H](O)[C@@H]1O)C2 [Compound I-205]	100 to 1000	100 to 1000	≥ 1000	≥ 1000
